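A five-concentration, 48-hour dose response in 96-well plates underlies each endpoint, interpolated linearly between surrounding concentrations. GI50: concentration for 50% inhibition of growth. TGI: concentration producing complete growth inhibition.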
Key:
Assay in all cases: NCI-60 cell line screen, 48 h
[1] = tested on: NCI/ADR-RES ovarian
[2] = tested on: SN12C renal
[3] = tested on: LOX IMVI melanoma
[4] = tested on: UACC-62 melanoma
[5] = tested on: OVCAR-4 ovarian
[6] = tested on: 786-0 renal
[7] = tested on: ACHN renal
[8] = tested on: MCF7 breast
[9] = tested on: NCI-H460 lung
[10] = tested on: PC-3 prostate
[11] = tested on: NCI-H522 lung
[12] = tested on: UACC-257 melanoma
[13] = tested on: TK-10 renal
[14] = tested on: HOP-92 NSCLC
[15] = tested on: NCI-H226 lung
[16] = tested on: MALME-3M melanoma
[17] = tested on: SK-MEL-5 melanoma
[18] = tested on: T-47D breast
[19] = tested on: CAKI-1 renal
[20] = tested on: MOLT-4 leukemia
[21] = tested on: M14 melanoma
[22] = tested on: SK-MEL-28 melanoma
[23] = tested on: OVCAR-5 ovarian
[24] = tested on: HS 578T breast
[25] = tested on: SK-OV-3 ovarian
[26] = tested on: SW-620 colon
[27] = tested on: HT29 colon
[28] = tested on: HCT-116 colon
[29] = tested on: DU-145 prostate
[30] = tested on: OVCAR-3 ovarian
[31] = tested on: BT-549 breast
[32] = tested on: MDA-MB-231 breast
[33] = tested on: KM12 colon
[34] = tested on: RXF 393 renal
[35] = tested on: OVCAR-8 ovarian
[36] = tested on: RPMI-8226 leukemia
[37] = tested on: HCC-2998 colon
[38] = tested on: K-562 leukemia
[39] = tested on: SF-295 CNS
[40] = tested on: EKVX NSCLC
[41] = tested on: HCT-15 colon
[42] = tested on: SK-MEL-2 melanoma
[43] = tested on: HOP-62 NSCLC
[44] = tested on: SF-539 CNS
[45] = tested on: A549 NSCLC
[46] = tested on: COLO 205 colon
[47] = tested on: HL-60(TB) leukemia
[48] = tested on: SR leukemia
[49] = tested on: NCI-H23 lung
[50] = tested on: SF-268 CNS
[51] = tested on: SNB-75 CNS
[52] = tested on: SNB-19 CNS
[53] = tested on: UO-31 renal
[54] = tested on: U251 CNS
[55] = tested on: IGROV1 ovarian
[56] = tested on: A498 renal
[57] = tested on: CCRF-CEM leukemia
[58] = tested on: MDA-MB-435

Cn1ccnc1C(=O)/C=C/c1ccc(C(=O)Nc2ccccc2F)cc1
GI50 [1]: 3.29 µM
TGI [1]: 22.5 µM
GI50 [2]: 2.63 µM
TGI [2]: 9.56 µM
GI50 [3]: 0.636 µM
TGI [3]: 2.24 µM
GI50 [4]: 1.98 µM
TGI [4]: 4.47 µM
GI50 [5]: 2.76 µM
TGI [5]: 12.8 µM
GI50 [6]: 1.69 µM
TGI [6]: 3.32 µM
GI50 [7]: 2.01 µM
TGI [7]: 4.15 µM
GI50 [8]: 1.82 µM
TGI [8]: 6.63 µM
GI50 [9]: 1.94 µM
TGI [9]: 5.43 µM
GI50 [10]: 1.89 µM
TGI [10]: 4.47 µM
GI50 [11]: 2.66 µM
TGI [11]: 8.76 µM
GI50 [12]: 3.51 µM
TGI [12]: 14 µM
GI50 [13]: 3.84 µM
TGI [13]: 15.9 µM
GI50 [14]: 1.9 µM
TGI [14]: 7.07 µM
GI50 [15]: 2.63 µM
TGI [15]: 10.3 µM
GI50 [16]: 1.93 µM
TGI [16]: 4.58 µM
GI50 [17]: 2.14 µM
TGI [17]: 4.56 µM
GI50 [18]: 2.9 µM
TGI [18]: 17.8 µM
GI50 [19]: 1.04 µM
TGI [19]: 4.33 µM
GI50 [20]: 2.38 µM
TGI [20]: 6.41 µM
GI50 [21]: 1.7 µM
TGI [21]: 3.81 µM
GI50 [22]: 2.04 µM
TGI [22]: 4.59 µM
GI50 [23]: 2.42 µM
TGI [23]: 6.42 µM
GI50 [24]: 3.02 µM
TGI [24]: 15.4 µM
GI50 [25]: 6.53 µM
TGI [25]: 20.6 µM
GI50 [26]: 1.76 µM
TGI [26]: 6.29 µM
GI50 [27]: 2.49 µM
TGI [27]: 6.68 µM
GI50 [28]: 0.862 µM
TGI [28]: 2.35 µM
GI50 [29]: 1.64 µM
TGI [29]: 3.32 µM
GI50 [30]: 2 µM
TGI [30]: 4.57 µM
GI50 [31]: 1.77 µM
TGI [31]: 4.21 µM
GI50 [32]: 3.24 µM
TGI [32]: 10.5 µM
GI50 [33]: 1.89 µM
TGI [33]: 3.82 µM
GI50 [34]: 1.75 µM
TGI [34]: 3.63 µM
GI50 [35]: 3.68 µM
TGI [35]: 21.6 µM
GI50 [36]: 0.567 µM
TGI [36]: 2.82 µM
GI50 [37]: 2.34 µM
TGI [37]: 4.67 µM
GI50 [38]: 0.372 µM
TGI [38]: > 100 µM
GI50 [39]: 4.6 µM
TGI [39]: 16.3 µM
GI50 [40]: 2.9 µM
TGI [40]: 11.5 µM
GI50 [41]: 1.33 µM
TGI [41]: 4.06 µM
GI50 [42]: 6.25 µM
TGI [42]: 28.1 µM
GI50 [43]: 4.27 µM
TGI [43]: 17.1 µM
GI50 [44]: 1.75 µM
TGI [44]: 4.24 µM
GI50 [45]: 3.01 µM
TGI [45]: 13.2 µM
GI50 [46]: 2.74 µM
TGI [46]: 6.67 µM
GI50 [47]: 1.6 µM
TGI [47]: 4.33 µM
GI50 [48]: 0.304 µM
TGI [48]: 2.34 µM
GI50 [49]: 2.85 µM
TGI [49]: 9.43 µM
GI50 [50]: 2.46 µM
TGI [50]: 9.16 µM
GI50 [51]: 1.36 µM
TGI [51]: 8.03 µM
GI50 [52]: 2.06 µM
TGI [52]: 5.66 µM
GI50 [53]: 1.38 µM
TGI [53]: 2.67 µM
GI50 [54]: 1.3 µM
TGI [54]: 3.29 µM
GI50 [55]: 2.12 µM
TGI [55]: 5.05 µM
GI50 [56]: 2.41 µM
TGI [56]: 8.21 µM
GI50 [57]: 1.18 µM
TGI [57]: 7.54 µM
GI50 [58]: 2.09 µM
TGI [58]: 5.04 µM
